Data: patent publication US8178148B2, “Coffee drink composition” (Kao Corporation, priority 2004, dated 2012)

Tested on: spontaneously hypertensive rats (SHR)
Experiment: Evaluation of hypotensive effect of FH1041 with added hydroxyhydroquinone (Example 3)
Assay type: in vivo, rat
Conditions: oral, HHQ added to FH1041 (300 mg/kg as total chlorogenic acids)
Protocol: (a) As in Example 2, 12-week-old male spontaneously hypertensive rats (SHR) was bred preliminarily.
(B) Administration Method and Amount: • Physiological saline was orally administered to a control group. An extract from raw coffee beans (“Flavor Holder FH1041”, product of T. Hasegawa Co., Ltd.) having chlorogenic acids as a main component was administered to a comparison group. The extract was prepared so that its administration amount would be 300 mg/kg in terms of the total chlorogenic acid amount. In test group 1, an administration material was prepared to permit the administration of FH1041 in an amount of 300 mg/kg in terms of a total chlorogenic acid amount and the administration of hydroxyhydroquinone in an amount of 0.03 mg/kg (0.01% relative to the total chlorogenic acid amount). In test group 2, an administration material was prepared to permit the administration of FH1041 in an amount of 300 mg/kg in terms of a total chlorogenic acid amount and the administration of hydroxyhydroquinone in an amount of 0.3 mg/kg (0.1% relative to the total chlorogenic acid amount). […]
Test method: One group consisted of three SHR. Systolic blood pressures of the caudal artery were measured prior to oral administration and 12 hours after administration and based on them, a percent change in blood pressure was calculated. […]

## Oc1ccc(O)c(O)c1 [hydroxyhydroquinone]
  Influence on the hypotensive effect of chlorogenic acids: disturbed
